Source: PubChem BioAssay (NCI)
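Protocol summary: plate cells (96-well), add compound at 5 concentrations, incubate 48 h, interpolate endpoints linearly. Definition used: TGI = concentration required for complete inhibition of growth.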

Tests used:
Test in all cases: growth of human tumour cells (NCI), 48 h
A549 NSCLC = system: A549 NSCLC
ACHN renal = system: ACHN renal
COLO 205 colon = system: COLO 205 colon
DMS 114 small cell lung = system: DMS 114 small cell lung
DMS 273 small cell lung = system: DMS 273 small cell lung
EKVX NSCLC = system: EKVX NSCLC
HCC-2998 colon = system: HCC-2998 colon
HCT-116 colon = system: HCT-116 colon
HCT-15 colon = system: HCT-15 colon
HOP-18 NSCLC = system: HOP-18 NSCLC
HOP-62 NSCLC = system: HOP-62 NSCLC
HOP-92 NSCLC = system: HOP-92 NSCLC
HT29 colon = system: HT29 colon
IGROV1 ovarian = system: IGROV1 ovarian
KM12 colon = system: KM12 colon
KM20L2 colon = system: KM20L2 colon
LOX IMVI melanoma = system: LOX IMVI melanoma
LXFL 529 NSCLC = system: LXFL 529 NSCLC
M14 melanoma = system: M14 melanoma
M19-MEL melanoma = system: M19-MEL melanoma
NCI-H23 lung = system: NCI-H23 lung
NCI-H460 lung = system: NCI-H460 lung
OVCAR-3 ovarian = system: OVCAR-3 ovarian
OVCAR-4 ovarian = system: OVCAR-4 ovarian
OVCAR-5 ovarian = system: OVCAR-5 ovarian
OVCAR-8 ovarian = system: OVCAR-8 ovarian
RPMI-8226 leukemia = system: RPMI-8226 leukemia
RXF 393 renal = system: RXF 393 renal
SF-268 CNS = system: SF-268 CNS
SF-539 CNS = system: SF-539 CNS
SK-MEL-2 melanoma = system: SK-MEL-2 melanoma
SK-MEL-28 melanoma = system: SK-MEL-28 melanoma
SK-MEL-5 melanoma = system: SK-MEL-5 melanoma
SN12C renal = system: SN12C renal
SNB-19 CNS = system: SNB-19 CNS
SNB-75 CNS = system: SNB-75 CNS
SNB-78 CNS = system: SNB-78 CNS
SR leukemia = system: SR leukemia
SW-620 colon = system: SW-620 colon
TK-10 renal = system: TK-10 renal
U251 CNS = system: U251 CNS
UACC-257 melanoma = system: UACC-257 melanoma
UACC-62 melanoma = system: UACC-62 melanoma
UO-31 renal = system: UO-31 renal
786-0 renal = system: 786-0 renal
A498 renal = system: A498 renal
CAKI-1 renal = system: CAKI-1 renal
CCRF-CEM leukemia = system: CCRF-CEM leukemia
DLD-1 colon = system: DLD-1 colon
HL-60(TB) leukemia = system: HL-60(TB) leukemia
K-562 leukemia = system: K-562 leukemia
MALME-3M melanoma = system: MALME-3M melanoma
MOLT-4 leukemia = system: MOLT-4 leukemia
NCI-H226 lung = system: NCI-H226 lung
NCI-H522 lung = system: NCI-H522 lung
SF-295 CNS = system: SF-295 CNS
SK-OV-3 ovarian = system: SK-OV-3 ovarian
BT-549 breast = system: BT-549 breast
DU-145 prostate = system: DU-145 prostate
HS 578T breast = system: HS 578T breast
MCF7 breast = system: MCF7 breast
MDA-MB-231 breast = system: MDA-MB-231 breast
MDA-MB-435 = system: MDA-MB-435
MDA-N = system: MDA-N
NCI/ADR-RES ovarian = system: NCI/ADR-RES ovarian
PC-3 prostate = system: PC-3 prostate
T-47D breast = system: T-47D breast

## COc1ccc(-c2nnc(-c3nsc4ccccc34)o2)cc1
A549 NSCLC
  TGI: > 100 µM
ACHN renal
  TGI: > 100 µM
COLO 205 colon
  TGI: > 100 µM
DMS 114 small cell lung
  TGI: > 100 µM
DMS 273 small cell lung
  TGI: > 100 µM
EKVX NSCLC
  TGI: > 100 µM
HCC-2998 colon
  TGI: > 100 µM
HCT-116 colon
  TGI: > 100 µM
HCT-15 colon
  TGI: > 100 µM
HOP-18 NSCLC
  TGI: > 100 µM
HOP-62 NSCLC
  TGI: > 100 µM
HOP-92 NSCLC
  TGI: > 100 µM
HT29 colon
  TGI: > 100 µM
IGROV1 ovarian
  TGI: > 100 µM
KM12 colon
  TGI: > 100 µM
KM20L2 colon
  TGI: > 100 µM
LOX IMVI melanoma
  TGI: > 100 µM
LXFL 529 NSCLC
  TGI: > 100 µM
M14 melanoma
  TGI: > 100 µM
M19-MEL melanoma
  TGI: > 100 µM
NCI-H23 lung
  TGI: > 100 µM
NCI-H460 lung
  TGI: > 100 µM
OVCAR-3 ovarian
  TGI: 92.6 µM
OVCAR-4 ovarian
  TGI: > 100 µM
OVCAR-5 ovarian
  TGI: > 100 µM
OVCAR-8 ovarian
  TGI: > 100 µM
RPMI-8226 leukemia
  TGI: 71.4 µM
RXF 393 renal
  TGI: 93.9 µM
SF-268 CNS
  TGI: > 100 µM
SF-539 CNS
  TGI: > 100 µM
SK-MEL-2 melanoma
  TGI: > 100 µM
SK-MEL-28 melanoma
  TGI: > 100 µM
SK-MEL-5 melanoma
  TGI: > 100 µM
SN12C renal
  TGI: > 100 µM
SNB-19 CNS
  TGI: > 100 µM
SNB-75 CNS
  TGI: 83.4 µM
SNB-78 CNS
  TGI: > 100 µM
SR leukemia
  TGI: > 100 µM
SW-620 colon
  TGI: > 100 µM
TK-10 renal
  TGI: > 100 µM
U251 CNS
  TGI: > 100 µM
UACC-257 melanoma
  TGI: > 100 µM
UACC-62 melanoma
  TGI: > 100 µM
UO-31 renal
  TGI: > 100 µM

## CC1=CP(=O)(OC(C)C)CC(C)=C1Cl (configuration not stated)
786-0 renal
  TGI: > 100 µM
A498 renal
  TGI: > 100 µM
A549 NSCLC
  TGI: > 100 µM
ACHN renal
  TGI: > 100 µM
CAKI-1 renal
  TGI: > 100 µM
CCRF-CEM leukemia
  TGI: > 100 µM
COLO 205 colon
  TGI: > 100 µM
DLD-1 colon
  TGI: > 100 µM
DMS 114 small cell lung
  TGI: > 100 µM
DMS 273 small cell lung
  TGI: > 100 µM
EKVX NSCLC
  TGI: > 100 µM
HCC-2998 colon
  TGI: > 100 µM
HCT-116 colon
  TGI: > 100 µM
HL-60(TB) leukemia
  TGI: > 100 µM
HOP-62 NSCLC
  TGI: > 100 µM
HOP-92 NSCLC
  TGI: > 100 µM
HT29 colon
  TGI: > 100 µM
IGROV1 ovarian
  TGI: > 100 µM
K-562 leukemia
  TGI: > 100 µM
KM12 colon
  TGI: > 100 µM
KM20L2 colon
  TGI: > 100 µM
LOX IMVI melanoma
  TGI: > 100 µM
LXFL 529 NSCLC
  TGI: > 100 µM
M14 melanoma
  TGI: > 100 µM
M19-MEL melanoma
  TGI: > 100 µM
MALME-3M melanoma
  TGI: > 100 µM
MOLT-4 leukemia
  TGI: > 100 µM
NCI-H226 lung
  TGI: > 100 µM
NCI-H23 lung
  TGI: > 100 µM
NCI-H460 lung
  TGI: > 100 µM
NCI-H522 lung
  TGI: > 100 µM
OVCAR-3 ovarian
  TGI: > 100 µM
OVCAR-5 ovarian
  TGI: > 100 µM
OVCAR-8 ovarian
  TGI: > 100 µM
RPMI-8226 leukemia
  TGI: > 100 µM
RXF 393 renal
  TGI: > 100 µM
SF-268 CNS
  TGI: > 100 µM
SF-295 CNS
  TGI: > 100 µM
SF-539 CNS
  TGI: > 100 µM
SK-MEL-2 melanoma
  TGI: > 100 µM
SK-MEL-28 melanoma
  TGI: > 100 µM
SK-MEL-5 melanoma
  TGI: > 100 µM
SK-OV-3 ovarian
  TGI: > 100 µM
SN12C renal
  TGI: > 100 µM
SNB-19 CNS
  TGI: > 100 µM
SNB-75 CNS
  TGI: > 100 µM
SNB-78 CNS
  TGI: > 100 µM
SR leukemia
  TGI: > 100 µM
SW-620 colon
  TGI: > 100 µM
TK-10 renal
  TGI: > 100 µM
U251 CNS
  TGI: > 100 µM
UACC-257 melanoma
  TGI: > 100 µM
UACC-62 melanoma
  TGI: > 100 µM
UO-31 renal
  TGI: > 100 µM

## COC12COC(=O)C1C(c1ccc3c(c1)OCO3)c1cc3c(cc1O2)OCO3 (configuration not stated)
786-0 renal
  TGI: > 96.8 µM
A498 renal
  TGI: > 91.8 µM
A549 NSCLC
  TGI: > 100 µM
ACHN renal
  TGI: > 100 µM
BT-549 breast
  TGI: > 100 µM
CAKI-1 renal
  TGI: > 100 µM
CCRF-CEM leukemia
  TGI: > 84.2 µM
COLO 205 colon
  TGI: > 93.8 µM
DU-145 prostate
  TGI: > 93.5 µM
EKVX NSCLC
  TGI: > 97.4 µM
HCC-2998 colon
  TGI: 53.1 µM
HCT-116 colon
  TGI: > 100 µM
HCT-15 colon
  TGI: > 100 µM
HL-60(TB) leukemia
  TGI: > 52.3 µM
HOP-62 NSCLC
  TGI: 97.6 µM
HOP-92 NSCLC
  TGI: > 100 µM
HS 578T breast
  TGI: > 77.3 µM
HT29 colon
  TGI: > 91 µM
IGROV1 ovarian
  TGI: > 100 µM
K-562 leukemia
  TGI: 40.2 µM
KM12 colon
  TGI: > 100 µM
LOX IMVI melanoma
  TGI: > 100 µM
M14 melanoma
  TGI: > 100 µM
MALME-3M melanoma
  TGI: > 100 µM
MCF7 breast
  TGI: > 100 µM
MDA-MB-231 breast
  TGI: > 100 µM
MDA-MB-435
  TGI: 9.13 µM
MDA-N
  TGI: 11.7 µM
MOLT-4 leukemia
  TGI: > 87.9 µM
NCI-H226 lung
  TGI: > 100 µM
NCI-H23 lung
  TGI: > 100 µM
NCI-H460 lung
  TGI: > 100 µM
NCI-H522 lung
  TGI: 39.7 µM
NCI/ADR-RES ovarian
  TGI: > 74.1 µM
OVCAR-3 ovarian
  TGI: > 100 µM
OVCAR-4 ovarian
  TGI: > 100 µM
OVCAR-5 ovarian
  TGI: > 100 µM
OVCAR-8 ovarian
  TGI: > 100 µM
PC-3 prostate
  TGI: > 100 µM
RPMI-8226 leukemia
  TGI: > 87.9 µM
RXF 393 renal
  TGI: 44.8 µM
SF-268 CNS
  TGI: > 100 µM
SF-295 CNS
  TGI: > 100 µM
SF-539 CNS
  TGI: 43.8 µM
SK-MEL-2 melanoma
  TGI: > 83.8 µM
SK-MEL-28 melanoma
  TGI: > 100 µM
SK-MEL-5 melanoma
  TGI: > 100 µM
SK-OV-3 ovarian
  TGI: > 75.8 µM
SN12C renal
  TGI: > 100 µM
SNB-19 CNS
  TGI: > 100 µM
SNB-75 CNS
  TGI: 59.2 µM
SR leukemia
  TGI: > 100 µM
SW-620 colon
  TGI: > 100 µM
T-47D breast
  TGI: > 100 µM
TK-10 renal
  TGI: > 100 µM
U251 CNS
  TGI: > 100 µM
UACC-257 melanoma
  TGI: > 96.4 µM
UACC-62 melanoma
  TGI: > 100 µM
UO-31 renal
  TGI: > 91.5 µM
